Measured values published in PubChem BioAssay (NCI).
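96-well plates; 48 h exposure; 5 concentrations. Endpoints by linear interpolation between flanking doses. Not reached: highest tested concentration assigned. The concentration for 50% growth inhibition is given as GI50. At the TGI there is no net growth.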

Assays:
Test in all cases: NCI-60 cell line screen, 48 h
LOX IMVI melanoma = tested on: LOX IMVI melanoma
OVCAR-3 ovarian = tested on: OVCAR-3 ovarian
OVCAR-4 ovarian = tested on: OVCAR-4 ovarian
COLO 205 colon = tested on: COLO 205 colon
KM20L2 colon = tested on: KM20L2 colon
A549 NSCLC = tested on: A549 NSCLC
DMS 273 small cell lung = tested on: DMS 273 small cell lung
HL-60(TB) leukemia = tested on: HL-60(TB) leukemia
HOP-92 NSCLC = tested on: HOP-92 NSCLC
RXF 393 renal = tested on: RXF 393 renal

SMILES	TGI (LOX IMVI melanoma) [µM]	TGI (OVCAR-3 ovarian) [µM]	TGI (OVCAR-4 ovarian) [µM]	TGI (COLO 205 colon) [µM]	TGI (KM20L2 colon) [µM]	TGI (A549 NSCLC) [µM]	TGI (DMS 273 small cell lung) [µM]	TGI (HL-60(TB) leukemia) [µM]	TGI (HOP-92 NSCLC) [µM]	TGI (RXF 393 renal) [µM]	GI50 (HOP-92 NSCLC) [µM]	GI50 (LOX IMVI melanoma) [µM]	GI50 (OVCAR-3 ovarian) [µM]	GI50 (RXF 393 renal) [µM]	GI50 (OVCAR-4 ovarian) [µM]	GI50 (COLO 205 colon) [µM]	GI50 (A549 NSCLC) [µM]	GI50 (HL-60(TB) leukemia) [µM]	GI50 (KM20L2 colon) [µM]	GI50 (DMS 273 small cell lung) [µM]
CCOC(=O)NC(=O)c1cn(CCCOC(=O)CCCCCCCCC(=O)OCCCn2cc(C(=O)NC(=O)OCC)c(=O)[nH]c2=O)c(=O)[nH]c1=O	> 100	34.8	30.7	64.4	> 100	> 100	66.6	26.4												
O=C(O)c1ccc([N+](=O)[O-])c2c(=O)c3ccccc3[nH]c12	> 100		> 100	> 100	> 100	> 100	> 100	> 100	> 100	> 100										
COc1ccc(C=NC23CC4CC(CC(C4)C2)C3)cc1	> 100	> 100	> 100	> 10	> 100	> 100	> 10	> 100		> 100										
O=Cc1[nH]c2ccccc2c1Br	75.7	56.5	> 100	34.7	41.5	> 100	36.3	51.8	66.8	67.8										
Cc1cc2c(c(C#N)c1C)NC(=O)C(CC(=O)O)C2=O (configuration not stated)	> 100	> 100	> 100	> 100	> 100	> 100	> 100	> 100	> 100	> 100										
Cc1cccc(C)c1NC(=O)C(=O)CC(=O)CO	> 100	> 100	> 100	> 100	> 100	> 100	> 100	> 100	> 100	> 100										
O=C(c1ccc(NCN2C(=O)CCC2=O)cc1)c1ccc(NCN2C(=O)CCC2=O)cc1	> 100	> 100	> 100	> 100	> 100	> 100	> 100	49.5	> 100	> 100										
O=C1NC2(O)c3ccccc3C(=O)C2(O)N1c1ccccc1 (configuration not stated)	> 100	> 100	> 100	> 100	> 100	> 100		> 100	> 100											
CC(=O)O[C@@H]1CC(C)C2CC2C2=C(C(O)OC2O)[C@@H]1C(C)CCC=C(C)C (some centres not stated)	40.9		71.2	32.5	39.9	51.7	45.3	43.1	35.5	34.8										
Cc1ccc(NS(=O)(=O)c2cc(C)ccc2C)cc1	22.5	7.12	> 100	14.7		38		27	34.6	16.7	12.9	5.13	2.53	2.9	20.9	3.49	4.78	3.65		
COc1cc2c(OC)c(c1)CCCC1=CC(=O)C=C(CCC2)C1=O	31.1	55.1	31.1	> 31.6		> 100		24.6	36.6	76.7										
Fc1ccc(-c2nnc3sc(-c4cccc(Cl)c4)nn23)cc1Cl	> 100	> 100	> 100	> 100		> 100		> 100	89.6	> 100	33.7	> 100	> 100	39.5	> 100	> 100	> 100	> 100		
Cn1c2ccc([N+](=O)[O-])cc2c(=O)c2c(O)cc(O)cc21	> 100	> 100	> 100	> 100		> 100		> 100	96.3	52										
O[C@]12CCCC[C@H]1CCC2	> 100	> 100	> 100	> 100		> 100	> 100	> 100	> 100	> 100										
CNC1NC(=O)c2ccccc2N1Cc1ccc(F)cc1 (configuration not stated)	> 100	> 100	> 100	> 100		> 100		> 100	> 100	> 100										
COC1CC(OS(=O)(=O)c2ccc(C)cc2)C(OS(=O)(=O)c2ccc(C)cc2)C(COS(=O)(=O)c2ccc(C)cc2)O1 (configuration not stated)		5.62	1.12	> 100	30.9	19.3	18.6	> 100		4.64										
NC(=NC1CCCCCC1)c1ccc(N2CCN(c3ccc(C(N)=NC4CCCCCC4)cc3)CC2)cc1	20.3	28.8	> 50	> 50		> 50		> 50	28.7	35.6	8.29	3.05	4.28	9.99	26.6	14.7	9.29	14.1		
CN1CCN(Cc2ccc(NC(=O)c3[nH]ncc3Nc3ncnc4c3CCC4)cc2)CC1	3.1	4.6	6.67	2.25		12.8		3.29	8.33	3.23	4.43	0.817	1.09	1.4	1.49	0.475	2.18	0.728		
CC[O-].CC[O-].O=Nc1ccc2cc([O-])ccc2c1.O=Nc1ccc2cc([O-])ccc2c1.[Ti+4]	4.14	3.82	3.2	6.54	8.22	4.85	3.11	3.71	6.1		1.96	1.66	1.44		1.76	2.2	2.14	1.2	2.83	1.68
CN(C)CC#Cc1cccc(C(=O)c2cnn(-c3ccc(F)cc3)c2N)c1	> 25	> 25	> 25	> 25		> 25		> 25	> 25	> 25	> 17.7	> 25	> 25	> 25	> 17.4	> 25	> 25	> 25		
